In patent US20180353521A1, “METHOD FOR TREATING STROKE OR REDUCING NERVE INJURY” (priority 2017, published 2018):
Entries after “also recorded” stand apart in the source; their conditions may differ.

What was measured:
[1] = Weight analysis in MCAO/reperfusion model; details: 24 hours after MCAO surgery, 50 mg/kg; for retardation in body weight decrease vs vehicle control group: FIG. 5; for body weight, AVG, 24 hr: average value
From the text: (§1) Test animals (250-350 g of male SD rats in this example) were anesthetized with 2% isoflurane in N2O/O2 (70%/30%). The right common carotid artery (right CCA), external carotid artery (ECA), and internal carotid artery (ICA) were isolated.
(§2) Cutting along the midline of the scalp, the nylon monofilament (the front of the nylon monofilament was covered with polysiloxane) was inserted through the external carotid artery along the internal carotid artery and extending to circle of Willis of the brain, resulting in obstruction of the middle cerebral artery. After an hour of ischemia, the nylon monofilament was removed and the brain's blood was reperfused.
(§3) The above-mentioned prevention model experiment further comprised a blank control group (sham) which were undergone no MCAO surgery and administered without the compound; and a vehicle control group (Vehicle) which was undergone MCAO surgery and administered with water in place of the compound.

[2] = system: Middle Cerebral Artery Occlusion, MCAO/Reperfusion Model (ischemic stroke); experiment: Analysis of brain infarct region (TTC staining) after MCAO; assay type: in vivo, male SD rats; details: 50 mg/kg given 10 minutes before MCAO; for reduction of brain infarct volume vs vehicle control group: Student's T test; for reduction of infarct size at positions from the front end of the brain: brain taken 24 hours after MCAO, 2 mm slices, FIG. 4B
[3] = system: Middle Cerebral Artery Occlusion, MCAO/Reperfusion Model (ischemic stroke); experiment: Neurobehavioral assessment after MCAO surgery; details: 50 mg/kg given 10 minutes before MCAO, 24 hours after MCAO surgery, Student's T test vs Vehicle, FIG. 3
From the text: as §1, §2, §3
Neurobehavioral assessment in one embodiment of the present invention was performed on the rats at 0.5, 1.5 and 24 hours after MCAO surgery on each group of rats, and scored according to the following states.
Score 0: lifting the rat by its tail to about 20 to 30 cm above the ground and observing the state of stretching the forelimbs, at which state the forelimb of the rat could stretch towards the ground with balance and no occurrences of other nerve injuries is shown in FIG. 2(A), representing the normal rat.
Score 1: lifting the rat by its tail to about 20 to 30 cm above the ground and observing the state of stretching the forelimb.
Score 2: the rat was placed on the ground and a lateral thrust was applied. The resistance of the rat to the thrust ipsilateral to the damaged area of the brain was decreased.
Score 3: the rat continued to go around in circles towards the contralateral side of damaged area of the brain and incapable of going straight when it was set free to exercise.
The Student's T test was adopted to determine whether there was difference between the groups administered with each compound and the Vehicle group. If the p value was less than or equal to 0.05, it represented significant difference.

SMILES	retardation in body weight decrease vs vehicle control group [1]	body weight, AVG, 24 hr [1]	reduction of brain infarct volume vs vehicle control group ([2]; 24 hours after MCAO, FIG. 4C, listed as AR-04-155)	reduction of infarct size at positions from the front end of the brain [2]	nerve injury (neurobehavioral assessment score) vs Vehicle ([3]; listed as AR-04-155)	total infarct volume (%) of the brain ([2]; 24 hours after MCAO, FIG. 4C)	reduction of brain infarct volume vs vehicle control group ([2]; 24 hours after MCAO, FIG. 4C)	reduction of brain infarct volume vs vehicle control group ([2]; 24 hours after MCAO, FIG. 4C, listed as AR-04-415)	nerve injury (neurobehavioral assessment score) vs Vehicle [3]	nerve injury (neurobehavioral assessment score) vs Vehicle ([3]; listed as AR-04-415)	reduction of brain infarct volume vs vehicle control group ([2]; 24 hours after MCAO, FIG. 4C, listed as AR-04-18225)	reduction of infarct size at positions from the front end of the brain ([2]; listed as AR-04-18225)	nerve injury (neurobehavioral assessment score) vs Vehicle ([3]; listed as AR-04-18225)
COc1cc(C)c(OC)c2c1OCO2 [AR-04-15S, 4,7-Dimethoxy-5-methyl-1,3-benzodioxole]	significant retardation in body weight decrease	243.2	significant effects in reducing the infarct; also recorded: statistically significant effect in reducing the brain infarct volume	significant effect in reducing the infarct size at 7 mm, 9 mm and 11 mm	recovery tendency; also recorded: significant effects in reducing nerve injury	–	–	–	–	–	–	–	–
C=C(CC[C@@H](C(=O)O)[C@H]1CC[C@@]2(C)C3=CC[C@H]4C(C)(C)[C@@H](O)CC[C@]4(C)C3=CC[C@]12C)C(C)C [AR-04-41S, dehydroeburicoic acid]	–	266.5	–	significant effect in reducing the infarct size at 3 mm, 7 mm, 9 mm, 11 mm, and 13 mm; also recorded: better efficacy at 7 mm	–	less than 10%	statistically significant effect in reducing the brain infarct volume	best effect on reducing the infarct volume	statistically significant in efficacy; also recorded: statistically significant effect in reducing nerve injury	recovery tendency	–	–	–
C=C(CC[C@@H](C(=O)O)[C@H]1C[C@H](O)[C@@]2(C)C3=CC[C@H]4C(C)(C)[C@@H](O)CC[C@]4(C)C3=CC[C@]12C)C(C)C [AR-04-1822S, dehydrosulphurenic acid (dehydrosulfurenic acid)]	significant retardation in body weight decrease	270.0	–	–	–	–	significant effects in reducing the infarct	–	statistically significant in efficacy	–	statistically significant effect in reducing the brain infarct volume	significant effect in reducing the infarct size at 3 mm, 5 mm, 7 mm, 9 mm, 11 mm, and 13 mm; also recorded: significantly better effect in reducing the infarct size at 7 mm and 9 mm	recovery tendency; also recorded: statistically significant effect in reducing nerve injury
